Laboratory results from patent publication US20210024545A1, “SUBSTITUTED DIAZAHETERO-BICYCLIC COMPOUNDS AND THEIR USE” (Bayer Aktiengesellschaft, priority 2016, published 2021).

What was measured:
human TASK-1 = human TASK-1 (Homo sapiens, UniProt O14649); experiment: Inhibition of recombinant TASK-1 in stably transfected CHO cells, KCl-induced depolarization, voltage-sensitive dye (B-2); assay type: cell-based; set-up: expressed in transfected cells; host or cells: stably transfected CHO cells; conditions: depolarization induced by 40 mM potassium chloride, some mean values from multiple determinations
Chain of human TASK-1 (O14649 whole entry): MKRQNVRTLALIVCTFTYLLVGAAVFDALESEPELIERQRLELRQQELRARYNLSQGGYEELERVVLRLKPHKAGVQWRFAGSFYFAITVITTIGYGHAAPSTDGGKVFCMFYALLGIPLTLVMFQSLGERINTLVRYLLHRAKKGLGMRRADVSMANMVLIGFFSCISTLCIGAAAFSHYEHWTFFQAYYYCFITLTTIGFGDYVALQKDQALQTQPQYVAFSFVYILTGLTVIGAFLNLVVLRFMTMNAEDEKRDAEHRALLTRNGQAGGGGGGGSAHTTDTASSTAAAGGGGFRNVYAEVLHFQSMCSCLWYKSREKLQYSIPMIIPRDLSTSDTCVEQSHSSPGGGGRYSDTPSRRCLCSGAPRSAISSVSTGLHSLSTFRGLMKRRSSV
Procedure, shortened: (§1)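 Stably transfected CHO cells loaded with a voltage-sensitive membrane potential dye. Depolarization was induced with 40 mM KCl, and compound inhibition of it was read by fluorescence. IC50 is the concentration blocking half of the KCl-induced depolarization; some values are means of multiple independent determinations.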

human TASK-3 = human TASK-3 (Homo sapiens, UniProt Q9NPC2); experiment: Inhibition of recombinant TASK-3 in stably transfected CHO cells, KCl-induced depolarization, voltage-sensitive dye (B-2); assay type: cell-based; set-up: expressed in transfected cells; host or cells: stably transfected CHO cells; conditions: depolarization induced by 40 mM potassium chloride, some mean values from multiple determinations
Chain of human TASK-3 (Q9NPC2 whole entry): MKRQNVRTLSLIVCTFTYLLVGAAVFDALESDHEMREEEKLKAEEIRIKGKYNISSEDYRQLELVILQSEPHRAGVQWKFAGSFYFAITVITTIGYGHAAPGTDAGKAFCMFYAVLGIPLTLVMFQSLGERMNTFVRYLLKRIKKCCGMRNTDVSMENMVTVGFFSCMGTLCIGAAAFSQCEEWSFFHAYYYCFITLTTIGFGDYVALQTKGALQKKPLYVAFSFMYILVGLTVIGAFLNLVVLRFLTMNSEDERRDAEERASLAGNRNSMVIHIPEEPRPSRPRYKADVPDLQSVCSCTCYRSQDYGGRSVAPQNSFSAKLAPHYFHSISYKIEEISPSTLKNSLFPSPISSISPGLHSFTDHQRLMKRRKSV
Procedure, shortened: as §1

Row | SMILES | IC50 (human TASK-1) | IC50 (human TASK-3)
1 | CCCCCNC(=O)N1C2CCC1CN(Cc1c(-c3ccc(Cl)cc3)nc3ccccn13)C2 [Example 158, 3-{[2-(4-Chlorophenyl)imidazo[1,2-a]pyridin-3-yl]methyl}-N-pentyl-3,8-diazabicyclo[3.2.1]octane-8-carboxamide] | 760 nM | 110 nM
2 | Cc1ccccc1NC(=O)N1C2CCC1CN(Cc1c(-c3ccc(Cl)cc3)nc3ccccn13)C2 [Example 159, 3-{[2-(4-Chlorophenyl)imidazo[1,2-a]pyridin-3-yl]methyl}-N-(2-methylphenyl)-3,8-diazabicyclo[3.2.1]octane-8-carboxamide] | 2900 nM | 220 nM
3 | O=C(Nc1cc(C(F)(F)F)ccc1Cl)N1C2CCC1CN(Cc1c(-c3ccc(Cl)cc3)nc3ccccn13)C2 [Example 160, 3-{[2-(4-Chlorophenyl)imidazo[1,2-a]pyridin-3-yl]methyl}-N-[2-chloro-5-(trifluoromethyl)phenyl]-3,8-diazabicyclo[3.2.1]octane-8-carboxamide] | 7600 nM | 1000 nM
4 | O=C(Nc1ccc(Cl)cc1)N1C2CCC1CN(Cc1c(-c3ccc(Cl)cc3)nc3ccccn13)C2 [Example 161, N-(4-Chlorophenyl)-3-{[2-(4-chlorophenyl)imidazo[1,2-a]pyridin-3-yl]methyl}-3,8-diazabicyclo[3.2.1]octane-8-carboxamide] | 7700 nM | 1000 nM
5 | CCc1cccc(C)c1NC(=O)N1C2CCC1CN(Cc1c(-c3ccc(Cl)cc3)nc3ccccn13)C2 [Example 162, 3-{[2-(4-Chlorophenyl)imidazo[1,2-a]pyridin-3-yl]methyl}-N-(2-ethyl-6-methylphenyl)-3,8-diazabicyclo[3.2.1]octane-8-carboxamide] | 53 nM | 13 nM
6 | Cc1ccc(C)c(NC(=O)N2C3CCC2CN(Cc2c(-c4ccc(Cl)cc4)nc4ccccn24)C3)c1 [Example 163, 3-{[2-(4-Chlorophenyl)imidazo[1,2-a]pyridin-3-yl]methyl}-N-(2,5-dimethylphenyl)-3,8-diazabicyclo[3.2.1]octane-8-carboxamide] | 1400 nM | 160 nM
7 | O=C(NC1CCCCC1)N1C2CCC1CN(Cc1c(-c3ccc(Cl)cc3)nc3ccccn13)C2 [Example 164, 3-{[2-(4-Chlorophenyl)imidazo[1,2-a]pyridin-3-yl]methyl}-N-cyclohexyl-3,8-diazabicyclo[3.2.1]octane-8-carboxamide] | 3100 nM | 1000 nM
8 | O=C(Nc1c(F)cccc1F)N1C2CCC1CN(Cc1c(-c3ccc(Cl)cc3)nc3ccccn13)C2 [Example 166, 3-{[2-(4-Chlorophenyl)imidazo[1,2-a]pyridin-3-yl]methyl}-N-(2,6-difluorophenyl)-3,8-diazabicyclo[3.2.1]octane-8-carboxamide] | 990 nM | 44 nM
9 | Cc1ccc(NC(=O)N2C3CCC2CN(Cc2c(-c4ccc(Cl)cc4)nc4ccccn24)C3)c(C)c1 [Example 167, 3-{[2-(4-Chlorophenyl)imidazo[1,2-a]pyridin-3-yl]methyl}-N-(2,4-dimethylphenyl)-3,8-diazabicyclo[3.2.1]octane-8-carboxamide] | 3000 nM | 350 nM
10 | CC(C)NC(=O)N1C2COCC1CN(Cc1c(-c3ccc(Cl)cc3)nc3ccccn13)C2 [Example 168, 7-{[2-(4-Chlorophenyl)imidazo[1,2-a]pyridin-3-yl]methyl}-N-isopropyl-3-oxa-7,9-diazabicyclo[3.3.1]nonane-9-carboxamide] | 1400 nM | 130 nM
11 | Cc1cccc(Cl)c1NC(=O)N1C2COCC1CN(Cc1c(-c3ccc(Cl)cc3)nc3ccccn13)C2 [Example 169, N-(2-Chloro-6-methylphenyl)-7-{[2-(4-chlorophenyl)imidazo[1,2-a]pyridin-3-yl]methyl}-3-oxa-7,9-diazabicyclo[3.3.1]nonane-9-carboxamide] | 3600 nM | 110 nM
12 | O=C(NC1CC1)N1C2CCC1CN(Cc1c(-c3ccc(Cl)cc3)nc3ccccn13)C2 [Example 170, 3-{[2-(4-Chlorophenyl)imidazo[1,2-a]pyridin-3-yl]methyl}-N-cyclopropyl-3,8-diazabicyclo[3.2.1]octane-8-carboxamide] | 1200 nM | 64 nM
13 | O=C(Nc1ccccc1Cl)N1C2CCC1CN(Cc1c(-c3ccc(Cl)cc3)nc3ccccn13)C2 [Example 171, N-(2-Chlorophenyl)-3-{[2-(4-chlorophenyl)imidazo[1,2-a]pyridin-3-yl]methyl}-3,8-diazabicyclo[3.2.1]octane-8-carboxamide] | 1800 nM | 26 nM
14 | CN(C(=O)N1C2CCC1CN(Cc1c(-c3ccc(Cl)cc3)nc3ccccn13)C2)c1ccccc1 [Example 172, 3-{[2-(4-Chlorophenyl)imidazo[1,2-a]pyridin-3-yl]methyl}-N-methyl-N-phenyl-3,8-diazabicyclo[3.2.1]octane-8-carboxamide] | 5200 nM | 80 nM
15 | O=C(N1CCOCC1)N1C2CCC1CN(Cc1c(-c3ccc(Cl)cc3)nc3ccccn13)C2 [Example 173, (3-{[2-(4-Chlorophenyl)imidazo[1,2-a]pyridin-3-yl]methyl}-3,8-diazabicyclo[3.2.1]oct-8-yl)(morpholin-4-yl)methanone] | 1700 nM | 32 nM
16 | CC(C)N(C(=O)N1C2CCC1CN(Cc1c(-c3ccc(Cl)cc3)nc3ccccn13)C2)C(C)C [Example 174, 3-{[2-(4-Chlorophenyl)imidazo[1,2-a]pyridin-3-yl]methyl}-N,N-diisopropyl-3,8-diazabicyclo[3.2.1]octane-8-carboxamide] | 91 nM | 13 nM
17 | CCN(C(=O)N1C2CCC1CN(Cc1c(-c3ccc(Cl)cc3)nc3ccccn13)C2)C1CCCCC1 [Example 175, 3-{[2-(4-Chlorophenyl)imidazo[1,2-a]pyridin-3-yl]methyl}-N-cyclohexyl-N-ethyl-3,8-diazabicyclo[3.2.1]octane-8-carboxamide] | 43 nM | 200 nM
18 | O=C(N1CCCC1)N1C2CCC1CN(Cc1c(-c3ccc(Cl)cc3)nc3ccccn13)C2 [Example 176, (3-([2-(4-Chlorophenyl)imidazo[1,2-a]pyridin-3-yl]methyl}-3,8-diazabicyclo[3.2.1]oct-8-yl)(pyrrolidin-1-yl)methanone] | 49 nM | 10 nM
19 | CCN(C(=O)N1C2CCC1CN(Cc1c(-c3ccc(Cl)cc3)nc3ccccn13)C2)c1ccccc1 [Example 177, 3-{[2-(4-Chlorophenyl)imidazo[1,2-a]pyridin-3-yl]methyl}-N-ethyl-N-phenyl-3,8-diazabicyclo[3.2.1]octane-8-carboxamide] | 4000 nM | 130 nM
20 | CC(C)N(C)C(=O)N1C2CCC1CN(Cc1c(-c3ccc(Cl)cc3)nc3ccccn13)C2 [Example 178, 3-{[2-(4-Chlorophenyl)imidazo[1,2-a]pyridin-3-yl]methyl}-N-isopropyl-N-methyl-3,8-diazabicyclo[3.2.1]octane-8-carboxamide] | 290 nM | 17 nM
21 | O=C(N1CCCCC1)N1C2CCC1CN(Cc1c(-c3ccc(Cl)cc3)nc3ccccn13)C2 [Example 179, (3-{[2-(4-Chlorophenyl)imidazo[1,2-a]pyridin-3-yl]methyl}-3,8-diazabicyclo[3.2.1]oct-8-yl)(piperidin-1-yl)methanone] | 270 nM | 2.9 nM
22 | CN(C)C(=O)N1C2CCC1CN(Cc1c(-c3ccc(Cl)cc3)nc3ccccn13)C2 [Example 180, 3-{[2-(4-Chlorophenyl)imidazo[1,2-a]pyridin-3-yl]methyl}-N,N-dimethyl-3,8-diazabicyclo[3.2.1]octane-8-carboxamide] | 220 nM | 23 nM
23 | CCN(C(=O)N1C2CCC1CN(Cc1c(-c3ccc(Cl)cc3)nc3ccccn13)C2)c1ccc(C)cc1 [Example 181, 3-{[2-(4-Chlorophenyl)imidazo[1,2-a]pyridin-3-yl]methyl}-N-ethyl-N-(4-methylphenyl)-3,8-diazabicyclo[3.2.1]octane-8-carboxamide] | 4100 nM | 1000 nM
24 | CC(C)N(C(=O)N1C2CCC1CN(Cc1c(-c3ccc(Cl)cc3)nc3ccccn13)C2)c1ccc(Cl)cc1 [Example 182, N-(4-Chlorophenyl)-3-{[2-(4-chlorophenyl)imidazo[1,2-a]pyridin-3-yl]methyl}-N-isopropyl-3,8-diazabicyclo[3.2.1]octane-8-carboxamide] | 6100 nM | 1000 nM
25 | O=C(N1CCSCC1)N1C2CCC1CN(Cc1c(-c3ccc(Cl)cc3)nc3ccccn13)C2 [Example 183, (3-{[2-(4-Chlorophenyl)imidazo[1,2-a]pyridin-3-yl]methyl}-3,8-diazabicyclo[3.2.1]oct-8-yl)(thiomorpholin-4-yl)methanone] | 450 nM | 26 nM
26 | COC(=O)N1C2CCC1CN(Cc1c(-c3ccc(Cl)cc3)nc3ccccn13)C2 [Example 184, Methyl 3-{[2-(4-chlorophenyl)imidazo[1,2-a]pyridin-3-yl]methyl}-3,8-diazabicyclo[3.2.1]octane-8-carboxylate] | 2900 nM | 72 nM
27 | O=C(OC1CCCC1)N1C2CCC1CN(Cc1c(-c3ccc(Cl)cc3)nc3ccccn13)C2 [Example 186, Cyclopentyl 3-{[2-(4-chlorophenyl)imidazo[1,2-a]pyridin-3-yl]methyl}-3,8-diazabicyclo[3.2.1]octane-8-carboxylate] | 730 nM | 44 nM
28 | O=C(OC1CCCCC1)N1C2CCC1CN(Cc1c(-c3ccc(Cl)cc3)nc3ccccn13)C2 [Example 187, Cyclohexyl 3-{[2-(4-chlorophenyl)imidazo[1,2-a]pyridin-3-yl]methyl}-3,8-diazabicyclo[3.2.1]octane-8-carboxylate] | 3800 nM | 200 nM
